Source: PMC4426668, “De novo synthesis of a sunscreen compound in vertebrates” (eLife, 2015)

Assays:
Format in all cases: biochemical
[1] = biological target: T1, LOC100003999 (zebrafish EEVS, DrEEVS) (Danio rerio, UniProt A0ACD6B5C7); assay: product detection by TLC; GC-MS with cell-free extract; settings: 4 mM SH7P, 1 mM NAD+, 0.1 mM CoCl2 or ZnSO4, 20 mM Tris-HCl pH 7.5, 30 °C, 2 h
T1 construct: N-terminal His6 tag (pRSET-B), codon-optimised synthetic gene, expressed in E. coli BL21 GOLD (DE3) pLysS, Ni-NTA purified
T1 sequence (A0ACD6B5C7 1-470): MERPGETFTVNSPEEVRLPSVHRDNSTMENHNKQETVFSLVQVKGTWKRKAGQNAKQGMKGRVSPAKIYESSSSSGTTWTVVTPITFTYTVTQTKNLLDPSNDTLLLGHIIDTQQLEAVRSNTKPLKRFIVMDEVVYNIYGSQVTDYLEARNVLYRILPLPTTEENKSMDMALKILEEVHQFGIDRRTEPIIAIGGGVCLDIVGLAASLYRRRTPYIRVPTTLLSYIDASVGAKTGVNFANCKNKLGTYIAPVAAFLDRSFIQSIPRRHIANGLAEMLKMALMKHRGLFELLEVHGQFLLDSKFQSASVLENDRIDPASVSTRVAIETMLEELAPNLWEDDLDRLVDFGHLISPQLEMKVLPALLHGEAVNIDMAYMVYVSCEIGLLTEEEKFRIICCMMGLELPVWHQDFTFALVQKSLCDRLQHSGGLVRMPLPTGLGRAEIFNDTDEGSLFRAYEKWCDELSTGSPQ

ValA (ShEEVS) = biological target: T2, ValA (ShEEVS) (Streptomyces hygroscopicus, UniProt H2K887); assay: TLC and GC-MS of product; settings: positive control enzyme; 4 mM SH7P, 1 mM NAD+, 0.1 mM CoCl2 or ZnSO4, 20 mM Tris-HCl pH 7.5, 30 °C, 2 h
T2 construct: N-terminal His6 tag (pRSETB-valA), expressed in E. coli BL21 GOLD (DE3) pLysS, Ni-NTA purified
T2 sequence (H2K887 whole entry): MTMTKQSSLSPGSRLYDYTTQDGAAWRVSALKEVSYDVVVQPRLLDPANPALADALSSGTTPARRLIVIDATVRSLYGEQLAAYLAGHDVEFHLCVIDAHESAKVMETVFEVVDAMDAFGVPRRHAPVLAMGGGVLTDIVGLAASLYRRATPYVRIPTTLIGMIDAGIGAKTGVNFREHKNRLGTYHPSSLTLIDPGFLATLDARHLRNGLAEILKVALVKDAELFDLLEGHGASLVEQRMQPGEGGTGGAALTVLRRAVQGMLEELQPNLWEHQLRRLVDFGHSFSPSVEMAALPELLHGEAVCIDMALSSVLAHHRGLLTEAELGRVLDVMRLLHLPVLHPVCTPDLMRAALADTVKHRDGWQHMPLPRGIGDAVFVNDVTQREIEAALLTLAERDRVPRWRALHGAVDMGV

MT-Ox (zgc:113054) [2] = biological target: T3, MT-Ox (zgc:113054) (Danio rerio, UniProt A0ACM8Q6W2); assay: product (gadusol) detection by HPLC-UV and (-)-ESI-MS; settings: methyl donor, 5 mM; NAD+ 2 mM, CoCl2 0.2 mM, phosphate pH 7.4, 30 °C
T3 construct: gene wu:fd55e12; bifunctional full-length protein (N-terminal SAM methyltransferase domain, C-terminal NAD+ oxidoreductase domain), N-terminal His6 tag (pRSET-B), codon-optimised, E. coli, Ni-NTA purified
T3 sequence (A0ACM8Q6W2 1-551): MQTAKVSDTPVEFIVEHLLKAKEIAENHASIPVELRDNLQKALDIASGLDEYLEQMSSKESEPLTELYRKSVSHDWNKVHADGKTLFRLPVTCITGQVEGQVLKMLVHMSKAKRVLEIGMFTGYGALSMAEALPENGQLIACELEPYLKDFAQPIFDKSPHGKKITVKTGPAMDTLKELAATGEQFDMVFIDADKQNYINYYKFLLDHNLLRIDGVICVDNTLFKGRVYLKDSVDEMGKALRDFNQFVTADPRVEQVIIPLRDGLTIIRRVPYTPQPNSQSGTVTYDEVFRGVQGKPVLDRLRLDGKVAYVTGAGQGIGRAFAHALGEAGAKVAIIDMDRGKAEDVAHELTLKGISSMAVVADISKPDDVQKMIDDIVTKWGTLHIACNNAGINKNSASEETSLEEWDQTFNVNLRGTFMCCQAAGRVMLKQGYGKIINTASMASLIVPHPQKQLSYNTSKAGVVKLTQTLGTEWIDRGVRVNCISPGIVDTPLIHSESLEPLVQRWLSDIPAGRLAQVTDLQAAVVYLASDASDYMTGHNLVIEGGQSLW

[3] = biological target: T1, LOC100003999 (zebrafish EEVS, DrEEVS); assay: TLC; GC-MS of silylated product against authentic EEV (cell-free extract); settings: 4 mM SH7P, 1 mM NAD+, 0.1 mM CoCl2 or ZnSO4, pH 7.5, 30 °C
MT-Ox (zgc:113054) [4] = biological target: T3, MT-Ox (zgc:113054); assay: product (gadusol) detection by (-)-ESI-MS; settings: SAM and NAD+ present; 30 °C

| SMILES | product detection by TLC; GC-MS with cell-free extract [1] | TLC and GC-MS of product (ValA (ShEEVS)) | product (gadusol) detection by HPLC-UV and (-)-ESI-MS (MT-Ox (zgc:113054) [2]) | TLC; GC-MS of silylated product against authentic EEV (cell-free extract) [3] | product (gadusol) detection by (-)-ESI-MS (MT-Ox (zgc:113054) [4]) |
| --- | --- | --- | --- | --- | --- |
| O=P(O)(O)OC[C@@H](O)[C@H]1OC(O)(CO)[C@@H](O)[C@@H]1O (stereo partly drawn) [sedoheptulose 7-phosphate] | Incubation of the recombinant protein with SH7P gave a product | ValA (instead of LOC100003999) was used as a positive control | – | – | – |
| C[S+](CC[C@H](N)C(=O)O)C[C@H]1O[C@@H](n2cnc3c(N)ncnc32)[C@H](O)[C@@H]1O (stereo partly drawn) [S-adenosylmethionine] | – | – | incubated with EEV in the presence of SAM and NAD^+ | – | – |
| O=C1C[C@@](O)(CO)[C@@H](O)[C@H](O)[C@@H]1O [2-epi-5-epi-valiolone] | – | TLC analysis of enzymatic products of purified ValA and purified LOC100003999 | – | confirmed by thin-layer chromatography (TLC) and GC-MS to be EEV | Synthetic EEV incubated with purified MT-Ox |
